From ChEMBL document CHEMBL5096155, “Recent advance of peptide-based molecules and nonpeptidic small-molecules modulating PD-1/PD-L1 protein-protein interaction or targeting PD-L1 protein degradation” (Eur J Med Chem, 2021) come the findings set out here.

pEC50, pIC50, pKd: −log10 of the molar value. Square brackets hold non-standard residues; d marks the D form. Peptide text beside a SMILES is read from it. * marks the point of attachment. ξ: configuration not given here. X1 = NC(CO)C(=O)NC(Cc1ccccc1)C(=O)NCCCCN*; ξE = NC(CCC(=O)O)C(=O)O

The pIC50 is the IC50 on a negative log10 scale, so that one unit is a factor of ten. What is called pEC50 is −log10 of the EC50, conventionally taken in molar units. What is called inhibition in vivo is the drop in the measured response relative to a control, in per cent. What is called pKd is the Kd on a negative log10 scale, so that one unit is a factor of ten.

Test [1] has as its target T1, Programmed cell death protein 1/Programmed cell death 1 ligand 1 (Homo sapiens, UniProt Q15116+Q9NZQ7). In words: Inhibition of PD-1/PD-L1 interaction (unknown origin) by HTRF binding assay. It counts as protein-complex assay. For orientation: Time-resolved FRET reads energy transfer from a long-lived donor to a nearby acceptor.
Test [2] deals with T1, Programmed cell death protein 1/Programmed cell death 1 ligand 1. The test can be described thus: Inhibition of PD-1/PD-L1 interaction (unknown origin). It counts as protein-complex assay.
Test [3] can be described thus: Cytoprotective activity against rat PMA-stimulated PBMC cells expressing PD-1 co-cultured with human HEK293 cells expressing PD-L2 assessed as rescue of cell proliferation by cell proliferation assay. It counts as functional, cell-based.
Test [4] in a line: Cytoprotective activity against rat PMA-stimulated PBMC cells expressing PD-1 co-cultured with human MDA-MB-231 cells expressing PD-L1 assessed as rescue of cell proliferation by cell proliferation assay. It counts as functional, cell-based.
For test [5], the system named is B16-F10. In words: Antitumor activity in mouse B16-F10 cells xenografted mouse lung metastasis model assessed as reduction in lung metastasis. It counts as functional. On the set-up: scale not given: the % may be the effect or the level left.
For test [6], the system named is B16-F10. The test can be described thus: Antitumor activity in mouse B16-F10 cells xenografted mouse model assessed as tumor growth inhibition at 15 mg/kg,sc. The format is functional.
Test [7] has as its target T1, Programmed cell death protein 1/Programmed cell death 1 ligand 1. In words: Inhibition of recombinant human PD-1/PD-L1 interaction incubated for 40 mins by HTRF binding assay. The format is protein-complex assay.
Test [8] relates to Splenocyte. The test can be described thus: Rescue of cell viability in mouse PD-L1 stimulated splenocyte at 100 nM incubated for 72 hrs by CFSE proliferation assay. The format is functional.
Test [9] has as its target T1, Programmed cell death protein 1/Programmed cell death 1 ligand 1. The test can be described thus: Inhibition of PD-1/PD-L1 interaction (unknown origin) incubated for 1 to 24 hrs by HTRF assay. The format is protein-complex assay.
The subject of another test is CT26. The test can be described thus: Antitumor activity against mouse CT26 cells xenografted BALB/c mouse assessed as reduction in tumor growth. It counts as functional. On the set-up: scale not given: the % may be the effect or the level left.
The subject of test [10] is Splenocyte. The test can be described thus: Cytoprotective activity against mouse splenocyte co-cultured with MDA-MB-231 cells overexpressing PD-L1 assessed as rescue of cell proliferation at 100 nM by cell proliferation assay. The format is functional.
The target of test [11] is T2, Programmed cell death 1 ligand 1 (Homo sapiens, UniProt Q9NZQ7). In words: Inhibition of PD-L1 (unknown origin).
T2 sequence (Q9NZQ7 whole entry, the tested form may be a part): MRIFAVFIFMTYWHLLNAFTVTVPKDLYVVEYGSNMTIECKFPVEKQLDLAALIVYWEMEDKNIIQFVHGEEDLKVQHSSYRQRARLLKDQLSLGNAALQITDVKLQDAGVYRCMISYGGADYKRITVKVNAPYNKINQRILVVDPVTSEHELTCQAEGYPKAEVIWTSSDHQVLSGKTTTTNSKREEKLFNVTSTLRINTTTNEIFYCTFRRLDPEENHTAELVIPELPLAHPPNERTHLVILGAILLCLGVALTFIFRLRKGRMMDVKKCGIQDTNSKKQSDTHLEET
Test [12] addresses T3, V-type immunoglobulin domain-containing suppressor of T-cell activation (Homo sapiens, UniProt Q9H7M9).
T3 sequence (Q9H7M9 whole entry): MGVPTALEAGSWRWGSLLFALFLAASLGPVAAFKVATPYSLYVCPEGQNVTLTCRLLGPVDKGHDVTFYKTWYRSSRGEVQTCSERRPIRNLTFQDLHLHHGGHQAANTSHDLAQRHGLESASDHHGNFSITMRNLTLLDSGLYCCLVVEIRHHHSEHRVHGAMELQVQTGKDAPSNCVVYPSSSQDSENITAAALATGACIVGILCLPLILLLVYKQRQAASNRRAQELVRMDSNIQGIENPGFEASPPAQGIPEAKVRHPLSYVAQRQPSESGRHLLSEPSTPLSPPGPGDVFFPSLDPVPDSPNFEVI
The test can be described thus: Inhibition of VISTA (unknown origin).

In test [13] the target is T1, Programmed cell death protein 1/Programmed cell death 1 ligand 1. The test can be described thus: Inhibition of human PD-1/PD-L1 interaction by HTRF binding assay. The format is protein-complex assay.
For test [14], the target named is T2, Programmed cell death 1 ligand 1. The test can be described thus: Binding affinity to human recombinant PD-L1 by surface plasmon resonance assay. (In general: SPR reads the build-up and loss of mass on a sensor chip optically.)
The test system of another test is NCI-H460. The test can be described thus: Antitumor activity in human NCI-H460 cells xenografted Balb/c mouse assessed as reduction in tumor mass at 4 mg/kg,sc administrated upto 72 hrs. The format is functional. Also on record: scale not given: the % may be the effect or the level left.
Test [15] deals with T1, Programmed cell death protein 1/Programmed cell death 1 ligand 1. The test can be described thus: Inhibition of PD-1/PD-L1 interaction (unknown origin) incubated for 15 mins by HTRF assay. The format is protein-complex assay.
Test [16] is described as follows: Cytoprotective activity against mouse PD-1 stimulated T cell assessed as rescue of PD-1 stimulated inhibition of IFN-gamma production by ELISA. It counts as functional, cell-based. In general terms: ELISA stands for enzyme-linked immunosorbent assay.

T1 sequence (Q15116 whole entry): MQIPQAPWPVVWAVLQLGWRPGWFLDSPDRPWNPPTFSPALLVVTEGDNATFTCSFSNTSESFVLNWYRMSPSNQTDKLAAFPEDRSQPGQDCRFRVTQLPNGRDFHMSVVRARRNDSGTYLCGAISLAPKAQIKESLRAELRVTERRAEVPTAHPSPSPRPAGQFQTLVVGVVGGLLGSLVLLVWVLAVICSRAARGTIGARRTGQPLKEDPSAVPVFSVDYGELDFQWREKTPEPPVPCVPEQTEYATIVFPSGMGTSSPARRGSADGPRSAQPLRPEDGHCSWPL
T1 sequence (Q9NZQ7 whole entry): as the sequence (Q9NZQ7 whole entry, the tested form may be a part) above

In the case of `Cc1c(COc2cc(OCc3cccc(C#N)c3)c(CN[C@H](CCO)C(=O)O)cc2Cl)cccc1-c1cccc(COc2cc(OCc3cccnc3)c(CN[C@@H](CCO)C(=O)O)cc2Cl)c1`, the pIC50 in test [1] is 10.40.

`Cc1c(-c2ccccc2)cccc1-c1nc2cc(CNCCO)ccc2o1` showed a pIC50 in test [2] of over 6.00.

With `CC[C@H](C)[C@H](NC(=O)[C@H](CCC(N)=O)NC(=O)[C@H](C)NC(=O)[C@H](CCCCN)NC(=O)[C@H]1CCCN1C(=O)[C@H](C)NC(=O)[C@H](CC(C)C)NC(=O)[C@H](CCC(N)=O)NC(=O)[C@@H](NC(=O)[C@@H](NC(=O)[C@H](CCCNC(=N)N)NC(=O)[C@H](Cc1ccccc1)NC(=O)[C@H](CCCCNC(=O)[C@H](Cc1ccccc1)NC(=O)[C@H](CO)NC(=O)[C@H](CCC(=O)O)NC(=O)[C@H](CO)NC(=O)[C@@H](NC(=O)[C@H](CC(N)=O)NC(=O)[C@@H](N)CO)C(C)O)NC(=O)[C@H](Cc1ccccc1)NC(=O)[C@H](CO)NC(=O)[C@H](CCC(=O)O)NC(=O)[C@H](CO)NC(=O)[C@@H](NC(=O)[C@H](CC(N)=O)NC(=O)[C@@H](N)CO)[C@@H](C)O)C(C)C)[C@@H](C)O)C(=O)N[C@@H](CCCCN)C(=O)N[C@@H](CCC(=O)O)C(N)=O` (some centres undefined), the pEC50 in [3] was 9.14; in [4], 9.39.

For `C[C@@H](O)[C@@H]1NC(=O)C(N[C@@H](CO)C(=O)O)CCC(=O)NCCCCC(C(=O)N[C@@H](CO)C(=O)N[C@@H](Cc2ccccc2)C(N)=O)NC(=O)[C@H](CO)NC1=O` (some centres undefined), the Activity in the test with B16-F10 [5] stood at 54%.

Consider `C[C@@H](O)[C@H](NC(=O)[C@H](CC(N)=O)NC(=O)[C@@H](N)CO)C(=O)N[C@@H](CO)C(=O)NC(CCC(=O)NCCCCNC(=O)C(Cc1ccccc1)NC(=O)C(N)CO)C(N)=O` (some centres undefined) (H-SNTS[ξE](X1)-NH2), for which, in the test on B16-F10 [5], the Activity came to 64%.

Turning to `O=C(O)[C@H](CO)NCc1cc(Cl)c(OCc2cccc(-c3ccccc3)c2Br)cc1OCc1cccnc1`, the inhibition in vivo at 15 mg/kg in the test with B16-F10 [6] was 64.1%.

`Cc1c(NC(=O)c2cc(CN3CCCC[C@H]3C(=O)O)cn(C)c2=O)cccc1-c1ccccc1`: the pIC50 in test [7] is over 7.00.

In the test with Splenocyte [8], `C[C@@H](O)[C@H](N)c1noc([C@H](Cc2ccc(O)cc2)NC(=O)N2CCC[C@H]2C(=O)O)n1` gave an Activity of 99%.

Regarding `Cc1c(COc2cc(OCc3cncc(C#N)c3)c(CN[C@@H](CO)C(=O)O)cc2Cl)cccc1-c1cccc(OCCCN2CCC(O)CC2)c1`, in [1], the pIC50 is 9.32.

The molecule `C[C@@H](O)[C@H](N)c1nnc([C@H](CCC(N)=O)NC(=O)N[C@@H](CO)C(=O)O)o1` yielded an Activity in the test on Splenocyte [8] of 92%.

Turning to `Cc1c(COc2cc(OCc3cccc(C#N)c3)c(CN[C@@H](CO)C(=O)O)cc2Cl)cccc1-c1ccc2c(c1)OCCO2`, in [1], the pIC50 was 8.83.

`COc1cc(/C=C/c2cccc(-c3ccccc3)c2)cc(OC)c1CN[C@](C)(CO)C(=O)O` gave a pIC50 in test [9] of 7.32.

With `CC(O)[C@H](N)c1nnc([C@]2(NC(=O)N[C@@H](CO)C(=O)O)C[C@H](CC#N)C2)o1` (some centres undefined), the Activity in the test on CT26 is 63.7%.

`C[C@H](O)[C@@H]1NC(=O)CCOCCOCCNC(=O)[C@H](CO)NC(=O)N[C@H](C(N)=O)C(=O)NNC1=O` displayed an Activity in the test with Splenocyte [8] of 94%.

`Cc1cc(CN[C@@H](CO)C(=O)O)c(OCc2cncc(C#N)c2)cc1OCc1cccc(-c2ccc3c(c2)OCCO3)c1C` showed a pIC50 in test [1] of 8.65.

For `C[C@H](O)[C@H](NC(=O)N[C@@H](CC(N)=O)C(=O)NNC(=O)[C@@H](N)CO)C(=O)O`, the Activity is listed as 87% with Splenocyte [10] and 68% in the test on Splenocyte [8]. Also, the pEC50 in test [3] is 7.40; in test [4], 7.52.

For the molecule `C[C@H](O)[C@H](NC(=O)N[C@@H](CC(N)=O)c1nnc([C@@H](N)CO)s1)C(=O)O`, the results for the pIC50 in [11] and in test [12] were 7.43 and 7.77, respectively.

The molecule `COc1nc(OCc2cccc(-c3cccc(COc4ccc(CNCCNC(C)=O)c(OC)n4)c3C)c2C)ccc1CNCCNC(C)=O` showed a pIC50 in [13] of 6.90.

For the molecule H-GNWDYNSQRAQLYNQ-OH, the pKd in test [14] is 5.86.

In the case of `C[C@H](NC(=O)[C@H](Cc1ccc(O)cc1)NC(=O)[C@H](CCC(N)=O)NC(=O)CNC(=O)[C@@H](N)CO)C(=O)N[C@@H](CO)C(=O)N[C@@H](Cc1ccc(O)cc1)C(=O)N[C@@H](Cc1cnc[nH]1)C(=O)N[C@@H](CS)C(=O)N[C@@H](Cc1c[nH]c2ccccc12)C(=O)N[C@@H](CS)C(=O)N[C@@H](Cc1c[nH]c2ccccc12)C(=O)N[C@@H](CCCNC(=N)N)C(=O)N[C@@H](CC(=O)O)C(=O)N1CCC[C@H]1C(=O)NCC(=O)N[C@@H](CCCNC(=N)N)C(=O)N[C@@H](CO)C(=O)NCC(=O)NCC(=O)N[C@@H](CO)C(=O)N[C@@H](CCCCN)C(=O)O` (H-SGQYASYHCWCWRDPGRSGGSK-OH), the Activity with NCI-H460 turned out to be 56%. Also, the pKd in test [14] was 7.03.

Regarding `C[C@H](O)[C@@H]1NC(=O)NCc2nc(no2)[C@H](CO)NC(=O)COCCOCCNC1=O`, the pIC50 in test [15] is over 8.00.

Consider `COc1cc(NS(=O)(=O)c2ccc(N)cc2)ncn1` [SULFAMONOMETHOXINE], for which the pIC50 in test [16] is under 6.40.

In the test with Splenocyte [8], `C[C@H](O)[C@@H]1NC(=O)N[C@H](C(N)=O)C(=O)NNC(=O)[C@H](CO)NC(=O)CCOCCOCCNC1=O` gave an Activity of 95%.

Regarding `N#Cc1c(NC(=O)c2ccc(CNCCO)cn2)cccc1-c1ccccc1`, the pIC50 in test [7] is over 8.00.

Consider `CNC(=O)C[C@@H]1NC(=O)O[C@@H]([C@H](C)O)C(=O)NCCOCCOCC(=O)N[C@@H](CCO)c2noc1n2`, for which the negative-log IC50 (pIC50) in test [15] was over 8.00.

The molecule `Cc1c(/C=C/c2nc(CNC(C)(CO)C(=O)O)ccc2C(F)(F)F)cccc1-c1ccc2c(c1)OCCO2` (centres undefined) gave a pIC50 in test [9] of 7.74.

Regarding `N#Cc1c(-c2ccccc2)cccc1N1CCC(NC2CCCOC2)CC1` (centres undefined), the pIC50 in [2] was over 6.00.

In the case of `NCCCC[C@H](NC(=O)N[C@@H](CC(N)=O)C(=O)NNC(=O)[C@@H](N)CO)C(=O)O`, the Activity in the test on Splenocyte [10] was 87%.
